From ChEMBL document CHEMBL3991601, “The target landscape of clinical kinase drugs” (Science, 2017)
Active and inactive are the calls of the source.

Key:
[1] = molecular target: T1, Long-chain-fatty-acid--CoA ligase 5 (Homo sapiens, UniProt Q9ULC5)
T1 sequence (Q9ULC5 whole entry): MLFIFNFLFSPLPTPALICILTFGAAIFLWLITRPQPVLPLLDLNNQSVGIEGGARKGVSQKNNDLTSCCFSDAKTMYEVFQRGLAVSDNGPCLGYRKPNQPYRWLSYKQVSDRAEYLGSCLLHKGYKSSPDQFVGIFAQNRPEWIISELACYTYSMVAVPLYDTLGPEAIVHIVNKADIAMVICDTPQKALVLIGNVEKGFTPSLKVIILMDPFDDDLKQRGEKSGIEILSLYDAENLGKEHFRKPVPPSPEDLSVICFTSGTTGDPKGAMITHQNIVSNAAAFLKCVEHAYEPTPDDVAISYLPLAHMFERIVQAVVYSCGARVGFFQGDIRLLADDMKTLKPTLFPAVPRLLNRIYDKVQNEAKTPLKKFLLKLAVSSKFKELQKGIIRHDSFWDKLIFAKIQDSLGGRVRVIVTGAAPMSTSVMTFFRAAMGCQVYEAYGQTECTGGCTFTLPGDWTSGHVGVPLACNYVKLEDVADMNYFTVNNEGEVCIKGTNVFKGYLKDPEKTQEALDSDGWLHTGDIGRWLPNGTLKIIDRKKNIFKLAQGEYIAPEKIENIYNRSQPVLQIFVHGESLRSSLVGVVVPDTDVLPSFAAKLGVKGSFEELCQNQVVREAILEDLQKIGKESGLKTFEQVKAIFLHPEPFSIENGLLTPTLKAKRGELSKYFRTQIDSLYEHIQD

[2] = molecular target: T2, Electron transfer flavoprotein subunit beta (Homo sapiens, UniProt P38117)
T2 sequence (P38117 whole entry): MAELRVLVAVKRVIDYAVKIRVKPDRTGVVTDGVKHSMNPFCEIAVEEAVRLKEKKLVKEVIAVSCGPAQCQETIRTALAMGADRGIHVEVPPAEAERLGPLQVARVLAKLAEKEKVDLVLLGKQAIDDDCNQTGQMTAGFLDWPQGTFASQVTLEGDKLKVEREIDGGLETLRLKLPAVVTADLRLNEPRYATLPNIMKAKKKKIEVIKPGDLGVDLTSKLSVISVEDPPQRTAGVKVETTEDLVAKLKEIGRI

[3] = molecular target: Serine/threonine-protein kinase PAK 6 (Homo sapiens, UniProt Q9NQU5)
[4] = molecular target: T3, Dual specificity protein kinase TTK (Homo sapiens, UniProt P33981)
T3 sequence (P33981 whole entry): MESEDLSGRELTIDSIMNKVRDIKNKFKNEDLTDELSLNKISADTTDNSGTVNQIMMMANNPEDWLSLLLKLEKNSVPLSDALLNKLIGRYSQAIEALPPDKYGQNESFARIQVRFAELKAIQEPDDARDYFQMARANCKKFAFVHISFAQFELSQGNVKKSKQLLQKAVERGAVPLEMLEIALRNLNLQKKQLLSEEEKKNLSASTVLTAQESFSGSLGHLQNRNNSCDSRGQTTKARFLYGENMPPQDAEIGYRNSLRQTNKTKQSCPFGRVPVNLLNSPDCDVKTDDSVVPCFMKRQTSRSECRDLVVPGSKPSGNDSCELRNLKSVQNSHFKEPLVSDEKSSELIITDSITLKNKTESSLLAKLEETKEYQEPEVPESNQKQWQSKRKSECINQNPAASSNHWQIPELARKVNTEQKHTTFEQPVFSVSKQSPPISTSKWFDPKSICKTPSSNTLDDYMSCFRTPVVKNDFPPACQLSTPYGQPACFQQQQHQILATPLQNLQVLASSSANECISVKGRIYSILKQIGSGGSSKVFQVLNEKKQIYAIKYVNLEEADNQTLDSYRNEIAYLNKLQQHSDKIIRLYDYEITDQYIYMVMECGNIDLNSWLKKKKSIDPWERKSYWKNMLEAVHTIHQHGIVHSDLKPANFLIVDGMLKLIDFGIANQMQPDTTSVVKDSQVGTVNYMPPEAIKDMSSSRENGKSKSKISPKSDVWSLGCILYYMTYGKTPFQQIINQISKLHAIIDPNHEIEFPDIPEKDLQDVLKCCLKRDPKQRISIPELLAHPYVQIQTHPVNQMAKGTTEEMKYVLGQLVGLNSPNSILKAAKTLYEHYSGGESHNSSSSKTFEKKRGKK

[5] = molecular target: Serine/threonine-protein kinase N3 (Homo sapiens, UniProt Q6P5Z2)
[6] = molecular target: Dual specificity protein kinase CLK3 (Homo sapiens, UniProt P49761); format: subcellular, K-562, COLO 205, SK-N-BE(2) and MV-4-11, Cell lysate; conditions: read-out: Kd apparent
[7] = molecular target: Choline-phosphate cytidylyltransferase A (Homo sapiens, UniProt P49585)

Measured: Kd
Further: in the data inactive means no Kd found up to 30 µM.

Chain of Choline-phosphate cytidylyltransferase A (P49585 whole entry): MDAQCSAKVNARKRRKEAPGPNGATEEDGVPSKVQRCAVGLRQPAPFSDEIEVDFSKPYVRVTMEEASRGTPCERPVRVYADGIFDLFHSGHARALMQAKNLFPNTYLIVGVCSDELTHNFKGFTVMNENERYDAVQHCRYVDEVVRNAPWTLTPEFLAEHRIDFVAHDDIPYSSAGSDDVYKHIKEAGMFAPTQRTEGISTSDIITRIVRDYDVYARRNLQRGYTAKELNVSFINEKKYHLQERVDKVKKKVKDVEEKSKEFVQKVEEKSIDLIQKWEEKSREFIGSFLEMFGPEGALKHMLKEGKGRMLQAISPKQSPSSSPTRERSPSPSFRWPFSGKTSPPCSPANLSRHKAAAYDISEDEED
Chain of Serine/threonine-protein kinase N3 (Q6P5Z2 whole entry): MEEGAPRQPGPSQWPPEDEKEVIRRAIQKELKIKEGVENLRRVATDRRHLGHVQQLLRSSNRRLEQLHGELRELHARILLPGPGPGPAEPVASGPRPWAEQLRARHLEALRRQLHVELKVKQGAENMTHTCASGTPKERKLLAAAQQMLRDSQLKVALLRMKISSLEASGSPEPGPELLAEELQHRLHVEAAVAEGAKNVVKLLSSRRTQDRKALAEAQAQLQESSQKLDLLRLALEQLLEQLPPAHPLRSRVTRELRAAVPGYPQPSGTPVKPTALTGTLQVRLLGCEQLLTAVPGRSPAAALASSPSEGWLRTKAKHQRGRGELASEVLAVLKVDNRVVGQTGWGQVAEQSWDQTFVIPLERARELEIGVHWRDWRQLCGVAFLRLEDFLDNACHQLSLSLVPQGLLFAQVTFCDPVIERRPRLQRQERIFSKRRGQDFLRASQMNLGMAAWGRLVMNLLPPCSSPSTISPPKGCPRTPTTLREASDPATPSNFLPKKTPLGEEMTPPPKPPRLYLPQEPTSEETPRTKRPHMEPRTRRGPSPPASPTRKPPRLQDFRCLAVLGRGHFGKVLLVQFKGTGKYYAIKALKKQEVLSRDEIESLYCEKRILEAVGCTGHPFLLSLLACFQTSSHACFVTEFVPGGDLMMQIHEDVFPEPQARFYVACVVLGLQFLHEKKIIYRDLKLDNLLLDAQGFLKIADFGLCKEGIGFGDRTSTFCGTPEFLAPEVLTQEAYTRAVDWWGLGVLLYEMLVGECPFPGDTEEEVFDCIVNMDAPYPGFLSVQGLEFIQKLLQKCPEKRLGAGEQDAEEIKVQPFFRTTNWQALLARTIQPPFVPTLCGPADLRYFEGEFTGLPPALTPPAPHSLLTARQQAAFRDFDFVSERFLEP
Chain of Dual specificity protein kinase CLK3 (P49761 whole entry): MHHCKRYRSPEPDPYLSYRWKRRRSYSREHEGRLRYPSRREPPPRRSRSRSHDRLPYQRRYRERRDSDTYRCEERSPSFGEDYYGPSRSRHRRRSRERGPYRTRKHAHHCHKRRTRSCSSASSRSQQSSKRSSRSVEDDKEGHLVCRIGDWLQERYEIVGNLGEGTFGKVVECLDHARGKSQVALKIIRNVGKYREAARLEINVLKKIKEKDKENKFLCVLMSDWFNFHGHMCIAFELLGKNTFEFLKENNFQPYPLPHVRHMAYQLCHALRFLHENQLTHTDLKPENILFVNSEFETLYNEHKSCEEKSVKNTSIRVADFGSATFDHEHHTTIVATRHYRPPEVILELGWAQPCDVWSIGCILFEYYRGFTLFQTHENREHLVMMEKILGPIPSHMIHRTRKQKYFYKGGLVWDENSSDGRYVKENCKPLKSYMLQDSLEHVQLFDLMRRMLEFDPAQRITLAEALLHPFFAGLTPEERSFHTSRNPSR
Chain of Serine/threonine-protein kinase PAK 6 (Q9NQU5 whole entry): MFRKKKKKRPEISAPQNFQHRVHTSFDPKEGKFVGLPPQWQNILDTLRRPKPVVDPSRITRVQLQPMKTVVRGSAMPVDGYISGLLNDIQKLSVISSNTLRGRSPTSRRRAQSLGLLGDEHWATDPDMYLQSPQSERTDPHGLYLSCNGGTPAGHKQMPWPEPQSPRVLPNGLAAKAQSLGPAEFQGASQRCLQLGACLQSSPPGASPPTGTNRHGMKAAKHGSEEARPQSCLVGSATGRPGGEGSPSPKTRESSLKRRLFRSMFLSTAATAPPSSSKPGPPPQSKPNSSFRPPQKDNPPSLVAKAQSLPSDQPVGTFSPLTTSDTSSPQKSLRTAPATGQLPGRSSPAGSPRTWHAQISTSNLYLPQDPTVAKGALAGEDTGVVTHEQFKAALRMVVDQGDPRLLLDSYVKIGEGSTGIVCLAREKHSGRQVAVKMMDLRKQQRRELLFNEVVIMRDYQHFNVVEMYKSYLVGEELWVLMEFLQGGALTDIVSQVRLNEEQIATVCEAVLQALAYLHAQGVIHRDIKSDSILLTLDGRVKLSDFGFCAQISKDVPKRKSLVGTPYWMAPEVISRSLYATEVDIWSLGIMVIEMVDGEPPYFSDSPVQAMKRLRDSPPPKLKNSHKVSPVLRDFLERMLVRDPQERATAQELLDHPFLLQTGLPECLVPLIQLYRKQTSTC

Cc1[nH]c(/C=C2\C(=O)Nc3ccccc32)c(C)c1CCC(=O)O [ORANTINIB]
inactive: [1] > 30 µM | [2] > 30 µM | [3] > 30 µM | [4] > 30 µM | [5] > 30 µM | [6] > 30 µM | [7] > 30 µM

CO[C@H]1C[C@@H]2CC[C@@H](C)[C@@](O)(O2)C(=O)C(=O)N2CCCC[C@H]2C(=O)O[C@H]([C@H](C)C[C@@H]2CC[C@@H](OC(=O)C(C)(CO)CO)[C@H](OC)C2)CC(=O)[C@H](C)/C=C(\C)[C@@H](O)[C@@H](OC)C(=O)[C@H](C)C[C@H](C)/C=C/C=C/C=C/1C [TEMSIROLIMUS]
inactive: [1] > 30 µM | [2] > 30 µM | [3] > 30 µM | [4] > 30 µM | [5] > 30 µM | [6] > 30 µM | [7] > 30 µM
